From US20070082818A1, “Agrochemical compositions” (priority 2003, published 2007)
Counter-ions that a name gives are not always drawn.

Legend:
[1] = assay type: physicochemical
Source text: It is to be understood that the term physical incompatibility in relation to adjuvants used in bipyridyl compositions indicates either gross separation of one or more components of the composition which may or may not be accompanied by a significant change in formulation rheology or bulk homogeneity. It is not necessarily essential that the composition is fully homogeneous in a strict physical sense provided that the composition is substantially homogeneous in the bulk. Thus a slight separation of a second phase may be acceptable provided that the separated phase remains fully dispersed in the bulk. […] This is obviously undesirable for a number of reasons. The term physical compatibility indicates the reverse of physical incompatibility as defined above.

[2] = test system: drilled broad leaved & grass weeds; assay: Field trials of 200 g/l paraquat compositions applied as foliar spray; assay type: in vivo; details: 39% and 51% of the conventional adjuvant system substituted
Method: Field Trials were conducted at 8 locations where the target plants were a range of drilled broad leaved & grass weeds. The 200 g/l paraquat compositions were applied as a foliar spray at application rates of 75, 150 & 300 g/ha paraquat ion, and at an application volume of 200 l/ha at a weed growth stage when the grasses were tillering & the broadleaved weeds were branching.

[3] = Physical compatibility of formulations by microscopic examination; assay type: physicochemical; details: corresponding formulations with about 120 g/l magnesium sulphate heptahydrate
[4] = test system: eight representative weed species; assay: Bioperformance enhancement of paraquat by amine/amide adjuvants, moving track sprayer; assay type: in vivo; details: paraquat dichloride spray at 10, 20 and 40 g/ha paraquat ion, 200 l/ha; adjuvant 0.5% by weight of spray volume (aminoethylpiperazine 0.625%); 7 days after treatment; mean over all species and combined rates; 0% no herbicidal effect, 100% complete kill
Method: The bioperformance enhancement of paraquat in the presence of amines or amides of the present invention was evaluated. An aqueous formulation of paraquat dichloride containing 0.5% by weight of the quinuclidine (based on the weight of the amine salt), N-(aminopropyl) morphiline (based on the weight of the parent amine) or 1-(2-hydroxethyl-2-imidazolidinone) (based on the weight of the amide), all based on total spray volume was applied using a moving track sprayer to eight representative weed species at 10, 20 and 40 g/ha (based on paraquat ion). The spray volume was equivalent to 200 l/ha. For aminoethylpiperazine the formulation contained 0.625% by weight of the amine (based on the parent amine).
The results are compared with an equivalent formulation containing only paraquat chloride.

Compound | Mean Activity (%) [4] | also measured
aminoethylpiperazine [AEP] |  | Adjuvant loading compatible with compositions of WO 02/076212 ([1]; actual amine): ≥ 40 g/L; Effect on biological performance of substituting conventional adjuvant system by AEP [2]: no deleterious effect; Physical compatibility when conventional surfactants were replaced by AEP [3]: significant improvement
CCCCCCCCOC(=O)CC(C(=O)OCCCCCCCC)S(=O)(=O)O.[Na] (centres unmarked) [sodium dioctyl sulfosuccinate, reference compound] |  | Adjuvant level at which physical separation / two phases were observed ([1]; about 120 g/l paraquat ion, about 80 g/l diquat ion, alginate, about 120 g/l magnesium sulphate heptahydrate): below 10 g/l
O=C1NCCN1CCO [1-(2-hydroxethyl-2-imidazolidinone)] | 66% | 
C1CN2CCC1CC2 [Quinuclidine as hydrochloride salt, Quinuclidine] | 68% | 
NCCN1CCNCC1 [Aminoethylpiperazine] | 72% | 
NCCCN1CCOCC1 [N-(Aminopropyl) morphiline] | 65% | 
